# Source: paper PMC12141046 (2025)
# Tests used:
# [1] = system: G4 MYC (DNA, G4) TGAGGGTGGGTAGGGTGGGTAA; experiment: fluorescent intercalator displacement; settings: 100 mM K+, 10 mM lithium cacodylate pH 7.3, thiazole orange displaced
# [2] = system: dsDNA (DNA, duplex) CAATCGGATCGAATTCGATCCGATTG; experiment: fluorescent intercalator displacement; settings: 100 mM K+, 10 mM lithium cacodylate pH 7.3, thiazole orange displaced
# [3] = system: G4 MYC (DNA, G4) TGAGGGTGGGTAGGGTGGGTAA; experiment: CD titration; settings: 100 mM Li+, 10 mM Tris-HCl pH 7.4, 20 °C, 10 µM DNA
# [4] = system: G4 KIT1 (DNA, G4) AGGGAGGGCGCTGGGAGGAGGG; experiment: CD titration; settings: 100 mM Li+; 10 mM Tris-HCl pH 7.4, 20 °C; 10 µM DNA; 405 nm illuminated; G4 induction
smiles,measurement,setting,value
NCCOc1cc(NC(=O)c2ccc3c(c2)/N=N/c2cc(-c4ccc5cccnc5c4)ccc2CC3)nc2ccccc12,apparent Kd,[1],1000 ± 30 nM
NCCOc1cc(NC(=O)c2ccc3c(c2)/N=N/c2cc(C4=CCN(CCNC(=O)CCOCCOCCOCCOCCNC(=O)CCCC[C@@H]5SC[C@@H]6NC(=O)N[C@@H]65)CC4)ccc2CC3)nc2ccccc12,DC50,[1]; normalized to trans isomer,1580 ± 50 nM
same,apparent Kd,[1]; derived from normalized DC50,630 ± 20 nM
same,binding,"[2]; highest 5 µM, 405 nm illuminated",no
NCCOc1cc(NC(=O)c2ccc3c(c2)/N=N\c2cc(C4=CCNCC4)ccc2CC3)nc2ccccc12,binding,"[3]; dark, slight shift at 30 µM",weak
same,DC50,[1]; dark,12460 ± 650 nM
same,apparent Kd,"[1]; dark, b14 prints error as 0.65",4970 ± 260 nM
same,binding,[2]; dark,no
NCCOc1cc(NC(=O)c2ccc3c(c2)/N=N/c2cc(-c4ccc(N5CCCCC5)cc4)ccc2CC3)nc2ccccc12,apparent Kd,[1],760 ± 130 nM
NCCOc1cc(NC(=O)c2ccc3c(c2)/N=N/c2cc(-c4cnc5ccccc5c4)ccc2CC3)nc2ccccc12,apparent Kd,[1],970 ± 60 nM
NCCOc1cc(NC(=O)c2ccc3c(c2)/N=N/c2cc(-c4ccc5ncccc5c4)ccc2CC3)nc2ccccc12,apparent Kd,[1],940 ± 30 nM
NCCOc1cc(NC(=O)c2ccc3c(c2)/N=N/c2cc(C4=CCNCC4)ccc2CC3)nc2ccccc12,binding,"[3]; 405 nm illuminated, parallel G4 induction",yes
same,binding,[4],yes
same,DC50,[1]; normalized to trans isomer,1150 ± 60 nM
same,apparent Kd,[1]; derived from DC50 normalized to trans isomer,460 ± 20 nM
same,binding,[2]; 405 nm illuminated,no
